{
  "source": "ChEMBL document CHEMBL1129122",
  "about": "“Synthesis and antimicrobial activity of 4-amino trinems” (1996)",
  "format_in_all_cases": "functional",
  "key": {"Enterococcus faecalis": {"system": "Enterococcus faecalis", "test": "In vitro antibacterial activity against Enterococcus faecalis 850 strain"}, "Staphylococcus aureus [1]": {"system": "Staphylococcus aureus", "test": "In vitro antibacterial activity against Staphylococcus aureus 853 strain"}, "Staphylococcus aureus [2]": {"system": "Staphylococcus aureus", "test": "In vitro antibacterial activity against Staphylococcus aureus 663 strain"}, "Escherichia coli [3]": {"system": "Escherichia coli", "test": "In vitro antibacterial activity against Escherichia coli 1850 strain"}, "Pseudomonas aeruginosa": {"system": "Pseudomonas aeruginosa", "test": "In vitro antibacterial activity against Pseudomonas aeruginosa 1911 strain"}, "Escherichia coli [4]": {"system": "Escherichia coli", "test": "In vitro antibacterial activity against Escherichia coli 1919 strain"}},
  "data": [
    {"smiles": "C[C@@H](O)[C@H]1C(=O)N2C(C(=O)O)=C3[C@@H](N)CCC[C@@H]3[C@H]12", "values": [
      {"measurement": "MIC", "setting": "Enterococcus faecalis", "result": 16, "unit": "µg/mL"},
      {"measurement": "MIC", "setting": "Staphylococcus aureus [1]", "result": 0.25, "unit": "µg/mL"},
      {"measurement": "MIC", "setting": "Staphylococcus aureus [2]", "result": 0.25, "unit": "µg/mL"},
      {"measurement": "MIC", "setting": "Escherichia coli [3]", "result": 1, "unit": "µg/mL"},
      {"measurement": "MIC", "setting": "Pseudomonas aeruginosa", "result": 4, "unit": "µg/mL"},
      {"measurement": "MIC", "setting": "Escherichia coli [4]", "result": 0.5, "unit": "µg/mL"}
    ]},
    {"smiles": "C[C@@H](O)[C@H]1C(=O)N2C(C(=O)O)=C3[C@H](CCC[C@@H]3N(C)C)[C@H]12", "values": [
      {"measurement": "MIC", "setting": "Enterococcus faecalis", "result": "> 32", "unit": "µg/mL"},
      {"measurement": "MIC", "setting": "Staphylococcus aureus [1]", "result": 0.25, "unit": "µg/mL"},
      {"measurement": "MIC", "setting": "Staphylococcus aureus [2]", "result": 0.25, "unit": "µg/mL"},
      {"measurement": "MIC", "setting": "Escherichia coli [3]", "result": 2, "unit": "µg/mL"},
      {"measurement": "MIC", "setting": "Pseudomonas aeruginosa", "result": 8, "unit": "µg/mL"},
      {"measurement": "MIC", "setting": "Escherichia coli [4]", "result": 1, "unit": "µg/mL"}
    ]},
    {"smiles": "C[C@@H](O)[C@H]1C(=O)N2C(C(=O)O)=C3[C@@H](NC4CCCC4)CCC[C@@H]3[C@H]12", "values": [
      {"measurement": "MIC", "setting": "Enterococcus faecalis", "result": 32, "unit": "µg/mL"},
      {"measurement": "MIC", "setting": "Staphylococcus aureus [1]", "result": 4, "unit": "µg/mL"},
      {"measurement": "MIC", "setting": "Staphylococcus aureus [2]", "result": 8, "unit": "µg/mL"},
      {"measurement": "MIC", "setting": "Escherichia coli [3]", "result": 8, "unit": "µg/mL"},
      {"measurement": "MIC", "setting": "Pseudomonas aeruginosa", "result": 32, "unit": "µg/mL"},
      {"measurement": "MIC", "setting": "Escherichia coli [4]", "result": 32, "unit": "µg/mL"}
    ]},
    {"smiles": "CN[C@H]1CCC[C@H]2C1=C(C(=O)O)N1C(=O)[C@H]([C@@H](C)O)[C@@H]21", "values": [
      {"measurement": "MIC", "setting": "Enterococcus faecalis", "result": 16, "unit": "µg/mL"},
      {"measurement": "MIC", "setting": "Staphylococcus aureus [1]", "result": 0.5, "unit": "µg/mL"},
      {"measurement": "MIC", "setting": "Staphylococcus aureus [2]", "result": 0.25, "unit": "µg/mL"},
      {"measurement": "MIC", "setting": "Escherichia coli [3]", "result": 2, "unit": "µg/mL"},
      {"measurement": "MIC", "setting": "Pseudomonas aeruginosa", "result": 4, "unit": "µg/mL"},
      {"measurement": "MIC", "setting": "Escherichia coli [4]", "result": 0.5, "unit": "µg/mL"}
    ]},
    {"smiles": "CO[C@H]1CCC[C@H]2C1=C(C(=O)[O-])N1C(=O)[C@H]([C@@H](C)O)[C@@H]21.[Na+]", "note": "[SANFETRINEM SODIUM]", "values": [
      {"measurement": "MIC", "setting": "Enterococcus faecalis", "result": 1, "unit": "µg/mL"},
      {"measurement": "MIC", "setting": "Staphylococcus aureus [1]", "result": 0.25, "unit": "µg/mL"},
      {"measurement": "MIC", "setting": "Staphylococcus aureus [2]", "result": 0.25, "unit": "µg/mL"},
      {"measurement": "MIC", "setting": "Escherichia coli [3]", "result": 0.5, "unit": "µg/mL"},
      {"measurement": "MIC", "setting": "Pseudomonas aeruginosa", "result": "> 32", "unit": "µg/mL"},
      {"measurement": "MIC", "setting": "Escherichia coli [4]", "result": 0.5, "unit": "µg/mL"}
    ]}
  ]
}
